Each structure is given as a SMILES string.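 Interpolation was linear, between the two tested concentrations surrounding the appropriate level; five concentrations were tested over 48 hours in 96-well plates. At the GI50, growth is halved. Definition used: TGI = concentration required for complete inhibition of growth.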

Test systems include HCC-2998 colon; KM12 colon; MDA-MB-231 breast; NCI-H460 lung; OVCAR-3 ovarian; OVCAR-4 ovarian; U251 CNS.
Common to all, as to assay: inhibition of tumour cell growth, NCI panel, 48 h

As for `CCC(=O)Oc1ccc(/C=N/NC(N)=S)nc1`, the GI50 in the experiment with HCC-2998 colon is 13.6 µM; in the experiment with KM12 colon, 4.69 µM; in the experiment on MDA-MB-231 breast, 6.79 µM; in the experiment on NCI-H460 lung, 4.04 µM; in the experiment on OVCAR-3 ovarian, 3.37 µM; in the experiment on OVCAR-4 ovarian, 3.92 µM. Besides, in the experiment on U251 CNS, the GI50 is 4.5 µM. The TGI in the experiment on HCC-2998 colon was > 100 µM; in the experiment with KM12 colon it was > 100 µM; with MDA-MB-231 breast it was > 100 µM; in the experiment with NCI-H460 lung, 46.6 µM; in the experiment with OVCAR-3 ovarian, > 100 µM; in the experiment with OVCAR-4 ovarian, > 100 µM. The TGI with U251 CNS is > 100 µM.

In the case of `Nc1nc(N)c(-c2ccc(Cl)cc2)c(/C=C/c2ccc([N+](=O)[O-])cc2)n1`, the GI50 in the experiment on KM12 colon was 23.4 µM; in the experiment on MDA-MB-231 breast, 8.01 µM; with NCI-H460 lung, 3.4 µM; in the experiment on OVCAR-3 ovarian, 5.76 µM; in the experiment with OVCAR-4 ovarian, 4.54 µM; in the experiment with U251 CNS it was 3.99 µM. Further, the TGI is > 100 µM in the experiment on KM12 colon; > 100 µM with MDA-MB-231 breast; > 100 µM in the experiment on NCI-H460 lung; 31.1 µM in the experiment with OVCAR-3 ovarian; > 100 µM in the experiment on OVCAR-4 ovarian; 23.8 µM with U251 CNS.

Regarding `O=C(CN1CCN(c2ccccn2)CC1)Nc1ccc(Cl)cc1C(=O)c1ccccc1Cl`, the GI50 was > 100 µM in the experiment on HCC-2998 colon; 7.73 µM in the experiment with KM12 colon; 93.6 µM in the experiment with NCI-H460 lung; 13.9 µM with OVCAR-4 ovarian; > 100 µM with U251 CNS. The TGI in the experiment on HCC-2998 colon, in the experiment on KM12 colon, with NCI-H460 lung, in the experiment on OVCAR-4 ovarian and in the experiment with U251 CNS was > 100 µM in each case.

With `O=C(Nc1ccc(N2CCNCC2)cn1)c1[nH]ncc1Nc1ncnc2sc3c(c12)CCC3`, the GI50 in the experiment on HCC-2998 colon was 14.1 µM; in the experiment on KM12 colon, 2.38 µM; in the experiment on MDA-MB-231 breast it was 1.69 µM; with NCI-H460 lung, 1.58 µM; in the experiment with OVCAR-3 ovarian, 1.84 µM. Moreover, the TGI came out at 36.2 µM with HCC-2998 colon; 6.12 µM with KM12 colon; 3.28 µM in the experiment with MDA-MB-231 breast; 3.48 µM in the experiment on NCI-H460 lung; 3.62 µM in the experiment with OVCAR-3 ovarian.

Take `Nc1ncnc2c1ncn2C1OC(C(=O)OCCO)C(O)C1O` (centres undefined): the TGI in the experiment with KM12 colon, in the experiment on MDA-MB-231 breast, in the experiment on NCI-H460 lung, with OVCAR-3 ovarian, in the experiment with OVCAR-4 ovarian and in the experiment with U251 CNS was > 100 µM in each case.

With `Cn1c(=O)c2[nH]cnc2n(C)c1=O.[CH2-]C(Cc1cccc2cc(C(=O)O)c(=O)oc12)OC.[Hg+2].[OH-]` (centres undefined), the GI50 was 23 µM in the experiment on HCC-2998 colon; 17.3 µM in the experiment on KM12 colon; 20.9 µM with MDA-MB-231 breast; 17.3 µM in the experiment with OVCAR-3 ovarian; 17.9 µM with OVCAR-4 ovarian; 16.3 µM in the experiment on U251 CNS. In addition, the TGI was determined as 39.2 µM in the experiment on HCC-2998 colon; 32 µM in the experiment on KM12 colon; 35.6 µM in the experiment with MDA-MB-231 breast; 32.8 µM with OVCAR-3 ovarian; 35.8 µM in the experiment with OVCAR-4 ovarian; 29.8 µM with U251 CNS.

For the molecule `NCCNc1ncnc2ccc(Cl)cc12`, the TGI in the experiment on KM12 colon, with MDA-MB-231 breast, with NCI-H460 lung, in the experiment with OVCAR-3 ovarian, in the experiment on OVCAR-4 ovarian and in the experiment on U251 CNS was > 100 µM each time.

For `O=[N+]([O-])c1ccc2nc(=S)[nH]n2c1`, the TGI with HCC-2998 colon, with KM12 colon, in the experiment with MDA-MB-231 breast, with NCI-H460 lung, with OVCAR-4 ovarian and with U251 CNS was > 100 µM in each case.

Turning to `CC(=O)c1cccc(NC(=O)/C(=N\NC(=S)NN)C2C(=O)Nc3ccccc3S2=O)c1` (centres undefined), the TGI in the experiment with KM12 colon, in the experiment with MDA-MB-231 breast, with OVCAR-3 ovarian and in the experiment on U251 CNS was > 100 µM in each case.

Turning to `CC(=O)Nc1cc(CN2CCCCC2)c(O)c2ncccc12`, the TGI is > 100 µM in the experiment with KM12 colon; 55.6 µM with MDA-MB-231 breast; 36.9 µM in the experiment on NCI-H460 lung; 96.9 µM in the experiment with OVCAR-3 ovarian; > 100 µM in the experiment on OVCAR-4 ovarian; 42 µM with U251 CNS.

For the molecule `CC1CC2(C)CC(=O)C1C1C(=O)N(CCN3CCOCC3)C(=O)C12` (centres undefined), the GI50 in the experiment with HCC-2998 colon, with KM12 colon, in the experiment on MDA-MB-231 breast, in the experiment on OVCAR-4 ovarian and in the experiment with U251 CNS was > 100 µM each time. Besides, the TGI in the experiment on HCC-2998 colon, with KM12 colon, in the experiment on MDA-MB-231 breast, with OVCAR-4 ovarian and in the experiment with U251 CNS was > 100 µM in each case.

As to `COc1ccc2c(c1)O/C(=C\c1ccc([N+](=O)[O-])s1)C2=O`, the GI50 in the experiment on HCC-2998 colon is 2.91 µM; in the experiment with NCI-H460 lung, 2.32 µM; with OVCAR-4 ovarian, 1.59 µM; with U251 CNS, 2.07 µM. Moreover, the TGI with HCC-2998 colon is > 100 µM; with NCI-H460 lung, > 100 µM; in the experiment with OVCAR-4 ovarian it was 4.91 µM; in the experiment on U251 CNS, > 20.9 µM.

`CC(C)CC1NC(=O)C(C(C)C)NC(=O)CC(C)COC(=O)C(CC(C)C)N(C)C(=O)C(C(C)C)NC(=O)C(C(C)C)OC1=O` (centres undefined): the TGI in the experiment on HCC-2998 colon, in the experiment with KM12 colon, with MDA-MB-231 breast, in the experiment with NCI-H460 lung, in the experiment on OVCAR-3 ovarian and in the experiment on U251 CNS was > 50 µM in each case.

In the case of `Nc1cc(N)c2nc(-c3ccccc3)c(Oc3ccc(Cl)c(Cl)c3)nc2c1`, the GI50 is 6.38 µM with KM12 colon; 10.3 µM in the experiment on MDA-MB-231 breast; 18.4 µM in the experiment on NCI-H460 lung; 10.8 µM with OVCAR-3 ovarian; 33 µM in the experiment on OVCAR-4 ovarian; 12.1 µM with U251 CNS. Besides, the TGI with KM12 colon is 39.8 µM; with MDA-MB-231 breast it was 26.2 µM; in the experiment with NCI-H460 lung, 71.4 µM; with OVCAR-3 ovarian, 26.9 µM; in the experiment with OVCAR-4 ovarian, > 100 µM; in the experiment on U251 CNS, 31.9 µM.

`O=C1CC2OCC=C3CN4CCC56c7ccccc7N1C5C2C3CC46` (centres undefined) (tested in a mixture with another compound): the GI50 with KM12 colon, with MDA-MB-231 breast, with NCI-H460 lung, with OVCAR-3 ovarian, in the experiment with OVCAR-4 ovarian and in the experiment with U251 CNS was > 50 µg/mL throughout. For the same molecule, the TGI with KM12 colon, in the experiment on MDA-MB-231 breast, with NCI-H460 lung, in the experiment on OVCAR-3 ovarian, with OVCAR-4 ovarian and with U251 CNS was > 50 µg/mL each time.

Source of the values: PubChem BioAssay (NCI).
